Laboratory results taken from patent publication US11135163B2, “Peptide hydrogel properties and its applications” (Kansas State University Research Foundation, priority 2014, dated 2021).

Key:
[1] = Hydrogelation and dynamic rheology of h9e in MEM; type: physicochemical; conditions: MEM without serum
[2] = Comparison of material properties of 3D cell culture hydrogels; type: physicochemical
[3] = Hydrogel formation and gelation time sweep of h9e with commercial mouse blood; conditions: all concentrations except 1%
Description: About 150 μL of the appropriate wt % of peptide solution was added to 150 μL of commercial mouse blood in a small vial. The mixture was pipetted 5 times to ensure continuity and observed for visual hydrogel formation. Visual observation of hydrogel formation was recorded via a Nikon Coolpix L22 camera (FIG. 9).
Hydrogel gelation time sweep (instantaneous): A time sweep was conducted on the hydrogel and commercial mouse blood mixture. 150 μL of the appropriate wt % of peptide solution was added to 150 μL of commercial mouse blood in a small vial. The mixture was pipetted about 5 times to ensure continuity and added to the rheometer for evaluation. Both storage and loss moduli, G′ and G″ respectively, of the h9e/blood hydrogel were determined using a C-VOR 150 rheometer (Malvern Instruments, Malvern, Worcestershire, United Kingdom). A plate 20 mm in diameter was used with 1% strain and frequency of 1 Hz at a 37° C. temperature for 30 minutes.
Hydrogel stability gelation time sweep (24 hours post gelatinization): A time sweep was conducted on the hydrogel and commercial mouse blood mixture. 24 hours post gelation. […] Both storage and loss moduli, G′ and G″ respectively, of the h9e/blood hydrogel was determined using a C-VOR 150 rheometer (Malvern Instruments, Malvern, Worcestershire, United Kingdom). […]

[4] = Hydrogelation and dynamic rheology of h9e in MEM; type: physicochemical; conditions: for stable storage modulus: 37° C.
Description: Lyophilized peptide was added to 100 mM sodium bicarbonate and completely dissolved by magnetic stirring for 3 hours with a final peptide concentration of 10 mM. For hydrogelation, peptide solution was added into MEM with 10% FBS and the mixture was hand-shaken for about 10 seconds. The peptide hydrogel formed within 15 minutes at room temperature with final peptide concentrations of 1, 2, and 3 mM. The storage and loss moduli (G′ and G″, respectively) of h9e hydrogels were determined on a C-VOR 150 rheometer system (Malvern instruments, Malvern, Worcestershire WR141XZ, United Kingdom) with a 20-mm diameter parallel plate geometry and 500 μm gap size. To mimic cell physiological conditions, all rheological tests were performed at 37° C. unless otherwise specified. The peptide and MEM mixture was placed on the measuring system immediately after mixing for a gel-forming rate test. Single frequency (1 Hz) and steady shear strain (1%) were selected for a 1 hour test. To determine the hydrogel reassembly capability, the peptide and MEM mixture was incubated at room temperature overnight for hydrogelation, then transferred to a lower measuring plate for a 10 minute, single-frequency test (1 Hz, 1% strain) for stabilization. The hydrogel was broken using 1 Hz frequency and 500% shear strain for 1 minute. Resetting the instrument parameters took 1 minute, and the hydrogel moduli during the reassembly period were measured under 1 Hz frequency and 1% shear strain for 1 hour. The amplitude sweep test (strain from 1 to 500%, 1 Hz frequency) was conducted multiple times to determine hydrogel reassembly capability after each time it was destroyed. Four testing cycles were applied in this measurement and the hydrogel recovery time between every two cycles was 1, 5, and 10 minutes. Furthermore, to test the response to different environmental temperatures, the peptide hydrogel was measured under a temperature profile test with steady oscillatory frequency (1 Hz) and strain (1%). The temperature was adjusted from 4° C. to 50° C. for two testing cycles. For each cycle, the instrument's heating or cooling processes took 5 minutes, then another 5 minutes to arrive at the setting temperature (4° C. or 50° C.). To determine the G′ and G″ of hydrogel during cell isolation, 3 mM peptide hydrogel was diluted 15 times with MEM. After thorough mixing, the diluted solution was tested under 1 Hz frequency and 1% shear strain at 4° C. for 1 hour.

Porosity [2]: 50-200 nm | viscosity, strength and stability 24 hours post gelation versus instantaneous [3]: increased | stable storage modulus ([4]; 1 mM h9e in MEM): around 100 Pa | gel strength recovered ([4]; 1 mM hydrogel, waiting time 1 min): about 73% | gel strength recovered ([4]; 1 mM, after three shear-thinning cycles and 10 min waiting): 83% | stable storage modulus ([4]; 2 mM h9e in MEM): ~400 Pa | gel strength recovered ([4]; 2 mM hydrogel, waiting time 1 min): ~76% | gel strength recovered ([4]; 2 mM, after three shear-thinning cycles and 10 min waiting): 84% | stable storage modulus ([4]; 3 mM h9e in MEM): ~700 Pa | gel strength recovered ([4]; 3 mM hydrogel, waiting time 1 min): ~88% | gel strength recovered ([4]; 3 mM, after three shear-thinning cycles and 10 min waiting): 100% | time to reach self-supporting strength (close or above 100 Pa) ([4]; 1, 2 and 3 mM h9e in MEM): ≤ 15 min | G′ after shear-thinning ([4]; 1-3 mM hydrogels, 500% strain for 1 minute): lower than 0.2 Pa | time to self-supporting hydrogel matrix ([4]; h9e solution added into MEM with 10% serum): ≤ 1 min | G′ at 50° C. relative to 4° C. ([4]; temperature profile test, 1-3 mM hydrogels): 2-3 times
Substance: H-FLIVIGSIIGPGGDGPGGD-NH2 [h9e, FLIVIGSIIGPGGDGPGGD]
solution to hydrogel transition [1]: did not stimulate this solution to hydrogel transitions effectively
